Data from patent US20220153746A1, “NITROGEN OXIDE-DONATING PDE-5 AND/OR PDE-6 INHIBITOR COMPOUNDS, AND USES THEREOF” (ILDONG PHARMACEUTICAL CO., LTD., priority 2020, published 2022).

Columns and labels:
human PDE-6C = human PDE-6C (Homo sapiens, UniProt P51160); test: Human PDE-6C inhibition assay (fluorescence polarization, FAM-cGMP); assay type: biochemical; conditions: read-out: IC50 (μM) PDE6C
[1] = test system: intraocular pressure (IOP) of ocular hypertensive rabbits; test: IOP lowering effect in ocular hypertensive rabbits (Example 9 Phase 2); assay type: in vivo; conditions: for Reduction ratio of IOP / OD IOP Mean: 50 μL/eye t.i.d.; for Reduction ratio of IOP: treated right vs vehicle left eye; for IOP compared with the vehicle treated eyes: p≤0.05; for OD IOP Mean: treated right eye, Day 10/11
Procedure: Phase 2: To confirm the IOP lowering effect of test article at different concentrations in ocular hypertensive rabbits. Modeling was induced by intracameral injection of elastic substance in both eyes, once. Then, positive control articles/test article was instilled into right eyes of animals, 50 μL/eye, once at 5-15 minutes, 3 and 6 hours post modeling, respectively. All left eyes of animals in each group were dosed with vehicle, 50 μL/eye, once at 5-15 minutes, 3 and 6 hours post modeling, respectively. IOPs was measured at pre-modeling, 1, 2, 4, 6, 8, and 10 hours post first dose.
For further analysis of the IOP reduction effect, the IOP reduction ratio was calculated using the difference between the TA/PA treated and vehicle treated eyes at each time points post first dosing. The results were tabulated below:
Animals were sedated by Ketamine (30˜50 mg/kg) and anesthetized by Xylazine (5˜10 mg/kg), intramuscularly. Disinfected the conjunctival sac by washing with 5% povidone iodine, and then washed the conjunctival sac with saline. Fixed the eyeball with forceps, then inserted needle from the temporal limbus horizontally, avoided damaging the corneal endothelial and iris. Held the syringe still and injected the Medical Sodium Hyaluronate Gel slowly into the anterior chamber, 100 μl/eye, waited for at least 10 seconds, then pulled out the needle slowly. Pressed the injection spot immediately with swab for at least 3 minutes, blocked the injection spot with one drop of tissue adhesive.
For Phase 2, 50 μL of 1% and 2% Compound 18, 0.024% latanoprostene bunod ophthalmic solution and 0.005% latanoprost eye drops were instilled into the right eyes and the same volume of Vehicle (Gel-blank) into the left eyes in Group 5 to Group 8 of Ocular Hypertensive Rabbits, 50 μL/eye, three times. The first day of dosing in phase 1 was designated as Day 1.
(§1) Delivery Method: Drawed 50 μL of the articles with a pipette, pulled out the lower eyelid of the animal, dropped the article into the conjunctiva sac, and gently closed the upper and lower eyelids for a few times.
(§2) Species/Strain: New Zealand White Rabbits (Oryctolagus cuniculus). The New Zealand White Rabbit was used in this study. This is commonly used specie for non-clinical studies of ophthalmic formulations, for which there is a large historical database, and the relative large cornea size is suitable for topical operations.
(§3) Restrained the animal, made the testing eye perpendicular to the probe of the TonoVet tonometer, measured the IOP for at least three times until the values are stable. The mean of the last three stable values were calculated as the final IOP value.
IOP Measurement in Ocular Hypertensive Rabbits: IOP was measured at pre-modeling, and once at 1, 2, 4, 6, 8, and 10 hours post first daily dose in study phase 2.

[2] = test system: intraocular pressure (IOP) of ocular normotensive rabbits; test: IOP lowering effect in ocular normotensive rabbits (Example 8; Example 9 Phase 1); assay type: in vivo, New Zealand White Rabbits (Oryctolagus cuniculus); conditions: for OD IOP Mean: 50 μL/eye once, treated right eye, Day 1
Description: This example illustrates the procedures and results of the intraocular pressure (IOP) lowering effect of compound 18 as compared to Latanoprostene bunod and latanoprost at different concentrations in ocular normotensive rabbits.
Forty (40) male New Zealand white rabbits were divided into 4 groups with 10 animals per group. Animals were then randomly assigned to groups based on body weight.
Latanoprostene bunod ophthalmic solution (LBN, 0.024%) and latanoprost eye drops (0.005%) were used as positive controls and dosed with the same volumes into the right eyes of the tested animals in groups 1 and 2 once.
Compound 18 was instilled into the right eyes of the tested animals in groups 3 (10 mg/mL) and 4 (20 mg/mL) at 50 μL per eye once.
All left eyes of the tested animals in each group were dosed with vehicle solution at 50 μL per eye.
The intraocular pressures (IOPs) were measured once at pre-dose and then once at 1, 2, 4, 6, 8, and 10 hours post dose for each group of animals. FIGS. 1 to 4 show the results from the IOP lowering studies for all four tested groups.
Phase 1: To confirm the IOP lowering effect of test article at different concentrations in ocular normotensive rabbits. Compound 18 was instilled into right eyes of animals in groups 3 and 4, 50 μL/eye, once. 0.024% latanoprostene bunod ophthalmic solution (LBN) and 0.005% latanoprost eye drops were served as positive control and be dosed with same volume into right eyes of groups 1 and 2 animals once. All left eyes of animals in each group were dosed with vehicle once, 50 μL/eye. IOPs was measured once at pre-dose and once at 1, 2, 4, 6, 8, 10 hours post dose. […]
as §1, §2, §3
IOP Measurement in Ocular Normotensive Rabbits: IOP was measured at pre-dose and once at 1, 2, 4, 6, 8, 10 hours post dose in study phase 1.

Chain of human PDE-6C (P51160 whole entry): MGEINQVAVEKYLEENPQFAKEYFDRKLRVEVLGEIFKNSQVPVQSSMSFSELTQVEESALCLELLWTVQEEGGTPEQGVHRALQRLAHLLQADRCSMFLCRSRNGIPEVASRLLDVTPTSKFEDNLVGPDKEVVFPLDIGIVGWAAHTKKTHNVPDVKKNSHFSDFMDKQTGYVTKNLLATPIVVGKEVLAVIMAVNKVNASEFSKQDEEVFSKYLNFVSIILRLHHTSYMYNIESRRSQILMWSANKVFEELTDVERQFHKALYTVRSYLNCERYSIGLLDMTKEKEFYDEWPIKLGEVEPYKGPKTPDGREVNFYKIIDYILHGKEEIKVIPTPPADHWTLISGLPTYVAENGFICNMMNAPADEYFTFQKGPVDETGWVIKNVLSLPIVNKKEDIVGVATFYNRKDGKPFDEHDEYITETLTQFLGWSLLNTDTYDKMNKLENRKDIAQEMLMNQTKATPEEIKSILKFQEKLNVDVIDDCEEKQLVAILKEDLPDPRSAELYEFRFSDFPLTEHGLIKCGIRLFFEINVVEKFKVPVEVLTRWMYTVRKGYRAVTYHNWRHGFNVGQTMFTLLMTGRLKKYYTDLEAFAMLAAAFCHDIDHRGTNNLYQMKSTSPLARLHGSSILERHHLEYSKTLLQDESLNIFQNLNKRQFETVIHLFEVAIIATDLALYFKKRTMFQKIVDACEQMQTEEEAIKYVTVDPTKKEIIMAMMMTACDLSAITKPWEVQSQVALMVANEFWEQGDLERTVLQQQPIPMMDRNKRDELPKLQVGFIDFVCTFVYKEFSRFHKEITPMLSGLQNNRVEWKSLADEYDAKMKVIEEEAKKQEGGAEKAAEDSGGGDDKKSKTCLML

`CCCc1nn(C)c2c(=O)[nH]c(-c3cc(S(=O)(=O)N4CC(CCCO)C4)ccc3OCC)nc12` [Compound 4, 5-(2-ethoxy-5-((3-(3-hydroxypropyl)azetidin-1-yl)sulfonyl)phenyl)-1-methyl-3-propyl-1,6-dihydro-7H-pyrazolo[4,3-d]pyrimidin-7-one] showed an IC50 (human PDE-6C) of under 0.01 µM.

In the case of `CCCc1nn(C)c2c(=O)[nH]c(-c3cc(S(=O)(=O)N4CC(CCCO[N+](=O)[O-])C4)ccc3OCC)nc12` [Compound 18, 3-(1-((4-ethoxy-3-(1-methyl-7-oxo-3-propyl-6,7-dihydro-1H-pyrazolo[4,3-d]pyrimidin-5-yl)phenyl)sulfonyl)azetidin-3-yl)propyl nitrate], the tolerability ([1]; Example 9, topical instillation in rabbits) is reported as “well tolerated”, the “Reduction ratio of IOP” value ([1]; Group 7, 10 mg/mL, 1 h post first dose) is reported as 23.36% and the “Reduction ratio of IOP” value ([1]; Group 7, 10 mg/mL, 2 h post first dose) is reported as 35.65%. The “Reduction ratio of IOP” value ([1]; Group 7, 10 mg/mL, 4 h post first dose) was 21.68%, the “Reduction ratio of IOP” value ([1]; Group 7, 10 mg/mL, 6 h post first dose) was 28.06% and the “Reduction ratio of IOP” value ([1]; Group 7, 10 mg/mL, 8 h post first dose) was 23.97%. The “Reduction ratio of IOP” value ([1]; Group 7, 10 mg/mL, 10 h post first dose) was 21.67%, the “Reduction ratio of IOP” value ([1]; Group 8, 20 mg/mL, 1 h post first dose) was 45.31% and the “Reduction ratio of IOP” value ([1]; Group 8, 20 mg/mL, 2 h post first dose) was 34.59%. For the same compound, the “Reduction ratio of IOP” value ([1]; Group 8, 20 mg/mL, 4 h post first dose) was 26.95%, the “Reduction ratio of IOP” value ([1]; Group 8, 20 mg/mL, 6 h post first dose) was 18.04% and the “Reduction ratio of IOP” value ([1]; Group 8, 20 mg/mL, 8 h post first dose) was 10.85%. The “Reduction ratio of IOP” value ([1]; Group 8, 20 mg/mL, 10 h post first dose) was −5.73%, the “IOP compared with the vehicle treated eyes” value ([1]; Phase 2, 10 mg/mL, at 2 h post dosing) was “significant decreased IOPs” and the “IOP compared with the vehicle treated eyes” value ([1]; Phase 2, 20 mg/mL, at 1 h post dosing) was “significant decreased IOPs”. The “OD IOP Mean” value ([1]; Phase 2 Group 7, 10 mg/mL (1%), 1 h post first dose) was 9.19, the “OD IOP Mean” value ([1]; Phase 2 Group 7, 10 mg/mL (1%), 2 h post first dose) was 13.80 and the “OD IOP Mean” value ([1]; Phase 2 Group 7, 10 mg/mL (1%), 4 h post first dose) was 20.47. For the same compound, the “OD IOP Mean” value ([1]; Phase 2 Group 7, 10 mg/mL (1%), 6 h post first dose) was 21.53, the “OD IOP Mean” value ([1]; Phase 2 Group 7, 10 mg/mL (1%), 8 h post first dose) was 17.82 and the “OD IOP Mean” value ([1]; Phase 2 Group 7, 10 mg/mL (1%), 10 h post first dose) was 15.22. The “OD IOP Mean” value ([1]; Phase 2 Group 8, 20 mg/mL (2%), 1 h post first dose) was 11.74, the “OD IOP Mean” value ([1]; Phase 2 Group 8, 20 mg/mL (2%), 2 h post first dose) was 19.67 and the “OD IOP Mean” value ([1]; Phase 2 Group 8, 20 mg/mL (2%), 4 h post first dose) was 25.57. For the same compound, the “OD IOP Mean” value ([1]; Phase 2 Group 8, 20 mg/mL (2%), 6 h post first dose) was 28.93, the “OD IOP Mean” value ([1]; Phase 2 Group 8, 20 mg/mL (2%), 8 h post first dose) was 27.40 and the “OD IOP Mean” value ([1]; Phase 2 Group 8, 20 mg/mL (2%), 10 h post first dose) was 22.63. For the same compound, the IOP after administration ([2]; Example 8, both 10 mg/mL and 20 mg/mL doses) was “significantly lower the IOP”, the “IOP compared with the vehicle treated eyes” value ([2]; Phase 1, 10 mg/mL, at 1, 2, 4 h post dosing, p≤0.05) was “significant decreased IOPs” and the “IOP compared with the vehicle treated eyes” value ([2]; Phase 1, 20 mg/mL, at 1, 2, 4, 8, 10 h post dosing (8, 10 h, p≤0.05; 1, 4 h, p≤0.01; 2 h, p≤0.001)) was “significant decreased IOPs”. For the same compound, the “OD IOP Mean” value ([2]; Phase 1 Group 3, 10 mg/mL (1%), 1 h post dose) was 12.50, the “OD IOP Mean” value ([2]; Phase 1 Group 3, 10 mg/mL (1%), 2 h post dose) was 13.30 and the “OD IOP Mean” value ([2]; Phase 1 Group 3, 10 mg/mL (1%), 4 h post dose) was 14.17. The “OD IOP Mean” value ([2]; Phase 1 Group 3, 10 mg/mL (1%), 6 h post dose) was 15.27, the “OD IOP Mean” value ([2]; Phase 1 Group 3, 10 mg/mL (1%), 8 h post dose) was 15.57 and the “OD IOP Mean” value ([2]; Phase 1 Group 3, 10 mg/mL (1%), 10 h post dose) was 16.53. The “OD IOP Mean” value ([2]; Phase 1 Group 4, 20 mg/mL (2%), 1 h post dose) was 11.47, the “OD IOP Mean” value ([2]; Phase 1 Group 4, 20 mg/mL (2%), 2 h post dose) was 11.93 and the “OD IOP Mean” value ([2]; Phase 1 Group 4, 20 mg/mL (2%), 4 h post dose) was 13.70. For the same compound, the “OD IOP Mean” value ([2]; Phase 1 Group 4, 20 mg/mL (2%), 6 h post dose) was 14.33, the “OD IOP Mean” value ([2]; Phase 1 Group 4, 20 mg/mL (2%), 8 h post dose) was 15.20 and the “OD IOP Mean” value ([2]; Phase 1 Group 4, 20 mg/mL (2%), 10 h post dose) was 15.40.
